The results in this text go back to article PMC7729195, “Pharmacodynamic Functions of Synthetic Derivatives for Treatment of Methicillin-Resistant Staphylococcus aureus (MRSA) and Mycobacterium tuberculosis” (Frontiers in Microbiology, 2020).

Broadly, the MIC is the smallest concentration in the dilution series that meets the test's criterion for growth inhibition. The MIC50 is the lowest concentration that inhibits either 50% of growth or 50% of the strains tested, depending on the study.

Data set [1] concerns MRSA. Description: Bacterial inhibition assay (resazurin), MIC against MRSA. Type of data set: cell-based, Staphylococcus aureus. Set-up: MIC for MRSA: unit not given here. The note with it: for MIC: Staphylococcus aureus, MRSA, synthetic compounds, 18 h incubation; for MIC for MRSA: Table 6 summary. A general note: Resazurin is reduced to fluorescent resorufin, in cell work by metabolically active cells.

In data set [2] the test system is M. tuberculosis H37Rv. In words: Bacterial inhibition assay (resazurin), MIC against M. tuberculosis. It is filed as cell-based, Mycobacterium tuberculosis. Also on record: MIC for TB. H37Rv: unit not given here. The note with it: for MIC: Mycobacterium tuberculosis, H37RV, 168 h; for MIC for TB. H37Rv: Table 6 summary.
A further data set concerns E. coli EC958. In words: Bacterial inhibition assay (resazurin), MIC against E. coli. Type of data set: cell-based, Escherichia coli. To be noted: synthetic compounds, 18 h incubation; for MIC: Escherichia coli, EC958.
In another data set the test system is P. aeruginosa PAO1. Description: Bacterial inhibition assay (resazurin), MIC against P. aeruginosa. It is filed as cell-based, Pseudomonas aeruginosa. To be noted: Pseudomonas aeruginosa, PAO1; synthetic compounds, 18 h incubation.
The next data set has as its system A549. Type of data set: cell-based. The note with it: human, 7 days. As for the experimental part:
(§1) Human alveolar epithelial cells (A549), ([Giard et al., 1973]), Madin-Darby canine kidney epithelial cells (MDCK), ([Gaush et al., 1966]), human leukemia cells (THP-1) ([Tsuchiya et al., 1980]), human hepatocellular carcinoma cells (Hep-G2), ([Aden et al., 1979]), and human embryonic kidney cells 293 (HEK293) ([Graham et al., 1977]) were grown and differentiated in complete RPMI (Roswell Park Memorial Institute Medium) and DMEM (Dulbecco’s Modified Eagle’s medium) tissue culture media (RPMIc and DMEMc). To determine toxicity of the AIMS extract library, 2 × 10^5 of each cell type were added to a 96-well plate and left for 48 h at 37°C to adhere. Extract samples at a final concentration of 0.5 mg mL^–1 were added to the wells, then incubated for 7 days in a humidified 5% CO2 incubator at 37°C. Then resazurin (10 μL of 0.05% w/v) was added, and after 4 h, fluorescence measured as described previously. Cell viability was calculated as percentage fluorescence relative to untreated cells.

The test system of another data set is HEK 293. It is filed as cell-based. To be noted: human, 7 days. As for the experimental part: as §1
Another data set relates to HepG2. It is filed as cell-based. To be noted: human, 7 days. As for the experimental part: as §1
A further data set concerns THP1. It is filed as cell-based. The note with it: human, 7 days. As for the experimental part:
as §1

For data set [3], the system named is MRSA. In words: Checkerboard assay with vancomycin against MRSA. To be noted: MRSA; for MIC50: Staphylococcus aureus, compound alone. It is filed as cell-based, Staphylococcus aureus.
In data set [4] the test system is M. tuberculosis H37Rv. In words: Checkerboard assay with rifampicin against M. tuberculosis. It is filed as cell-based, Mycobacterium tuberculosis. To be noted: for Drug–drug interactions / FIC: M. tuberculosis, compound with rifampicin; for MIC50: Mycobacterium tuberculosis, H37RV, read-out: Compound alone MIC50 for M. tuberculosis.
In data set [5] the test system is MRSA. In words: Minimum bactericidal concentration (MBC) for MRSA. It is filed as cell-based, Staphylococcus aureus. Also on record: unit not given here. The note with it: sub-culture on agar, 18 h.
For the next data set, the system named is TB. H37Rv. In words: Minimum bactericidal concentration (MBC) for TB. Set-up: unit not given here. It is filed as cell-based, Mycobacterium tuberculosis. The note with it: sub-culture on agar, 7 days.
Data set [6] deals with MRSA. Description: Time-kill study against MRSA. To be noted: for Effect of sub-inhibitory combination with vancomycin on MRSA growth: sub-inhibitory combinations with vancomycin; for Concentration at which killing was observed: time-kill, MRSA. It is filed as cell-based, Staphylococcus aureus.
A further data set deals with M. tuberculosis. In words: Time-kill study against M. tuberculosis. Type of data set: cell-based, Mycobacterium tuberculosis. To be noted: rifampicin plus compound, day 7 of treatment. As for the experimental part:
Time-kill experiments were performed by culturing MRSA and M. tuberculosis in liquid medium in the presence of six synthesized sample concentrations in doubling dilutions ranging from 8 to 0.001 × MIC and 2 × MIC for both bacteria, respectively. Growth curves were initially generated to confirm that bacteria would reach a stable early- to mid-log phase after 2 and 48 h of pre-incubation in antimicrobial-free both medium, respectively. Samples were taken in different incubation times after drug exposure at 0, 2, 4, 6, 8, and 24 h for MRSA and 24, 48 h, and 4 and 6 days for M. tuberculosis and then plated onto agar plates for CFU determination. The experiments were carried out in duplicate and repeated three times.

The subject of the next data set is resistant strains. Description: MIC against resistant strains. It is filed as cell-based. The note with it: read-out: MIC against resistant strains.
Data set [7] deals with A549, THP-1, HepG2 and HEK 293 cell lines. Type of data set: cell-based, human. As for the experimental part: as §1
[8] abbreviates: synthetic compounds, 7 days incubation.

Values after ≈ are worked out from the molar mass of the structure shown.

On to `CCCCCCCCN(CCCCCCCC)CCCCCCCC` [Compound 13, N,N,N-Trioctylammonium Chloride], for which the MIC with MRSA [1] was 12.5 ± 2.7 µM; in the data set with M. tuberculosis H37Rv [2] (setting [8]), 0.02 µM; against E. coli EC958 it was 25 ± 2 µM; in the data set on P. aeruginosa PAO1, 25 ± 4 µM; with resistant strains it was no less than 0.24 µM. Further, in the data set on MRSA [1], the “MIC for MRSA” value was 12.5. The “MIC for TB. H37Rv” value in the data set with M. tuberculosis H37Rv [2] turned out to be 0.02. In addition, the “MIC M. tuberculosis” value in the data set with M. tuberculosis H37Rv [2] (setting [8]) was determined as 0.02 ± 1.1 µM. For the same compound, in the data set on A549, the “Minimum toxicity concentration of drug (MTC) A549” value worked out at 50 ± 1.4 µM. For the same compound, the “Minimum toxicity concentration of drug (MTC) HEK 293” value in the data set on HEK 293 turned out to be 6.5 ± 3.0 µM. Besides, the “Minimum toxicity concentration of drug (MTC) HepG2” value with HepG2 is greater than 100 ± 5.2 µM. Further, the “Minimum toxicity concentration of drug (MTC) THP1” value in the data set on THP1 is 3.1 ± 0.7 µM. Besides, the “Drug–drug interactions” value with MRSA [3] (compound with vancomycin) and in the data set on M. tuberculosis H37Rv [4] was “Indifference (0.25–4 indifferent or additive activity)” each time. Also, the MIC50 in the data set with MRSA [3] stood at 12.5 µM; in the data set on M. tuberculosis H37Rv [4] it was 0.02 µM. For the same compound, the FIC with M. tuberculosis H37Rv [4] was 1.1. Further, in the data set with MRSA [5], the “MBC for MRSA” value worked out at 100. Further, the “MBC for TB. H37Rv” value against TB. H37Rv was found to be 0.39. Moreover, the “Effect of sub-inhibitory combination with vancomycin on MRSA growth” value in the data set with MRSA [6] is listed as “substantially inhibited growth of MRSA”. The “Concentration at which killing was observed” value with MRSA [6] is reported as greater than 100 μg mL^–1. The “Killing effect with rifampicin” value with M. tuberculosis is recorded as “comparable killing effects”. In addition, in data set [7], the “Toxicity against THP1 and/or HEK 293 cells” value is “some toxicity”.
On to `CCCCCCCCN(CCCCCCCC)CCc1cn(-c2ccc3c4c(cccc24)C(=O)N(CC)C3=O)nn1` [Compound 18, 6-(4-(2-(Dioctylamino) Ethyl)-1H-1,2,3-Triazol-1-yl)-2-Ethyl-1H-Benzo[de]isoquinoline-1,3(2H)-Dione], for which the MIC against MRSA [1] was 12.5 ± 2 µM (≈ 7 µg/mL); in the data set on M. tuberculosis H37Rv [2] (setting [8]), 12.5 ± 1 µM (≈ 7 µg/mL); against E. coli EC958 it was 1.5 µM (≈ 0.84 µg/mL); against P. aeruginosa PAO1 it was 12.5 ± 0.8 µM (≈ 7 µg/mL); in the data set with resistant strains, 2.2 µM (≈ 1.23 µg/mL). In addition, the “MIC for MRSA” value in the data set on MRSA [1] amounted to 12.5. For the same compound, the “MIC for TB. H37Rv” value against M. tuberculosis H37Rv [2] is recorded as 6.25. For the same compound, the “MIC E. coli” value in the data set with E. coli EC958 is 1.5 ± 4.0 µM (≈ 0.84 µg/mL). The “Minimum toxicity concentration of drug (MTC) A549” value in the data set with A549 is greater than 100 ± 6.0 µM. For the same compound, in the data set on HEK 293, the “Minimum toxicity concentration of drug (MTC) HEK 293” value was 3.1 ± 8.2 µM. In addition, in the data set on HepG2, the “Minimum toxicity concentration of drug (MTC) HepG2” value is greater than 100 ± 5.0 µM. In addition, in the data set with THP1, the “Minimum toxicity concentration of drug (MTC) THP1” value is greater than 100 ± 9.0 µM. The “Drug–drug interactions” value in the data set with MRSA [3] (compound with vancomycin) and in the data set on M. tuberculosis H37Rv [4] was “Indifference (0.25–4 indifferent or additive activity)” throughout. Further, the FIC amounted to 1.2 with MRSA [3] (compound with vancomycin) and 1 with M. tuberculosis H37Rv [4]. In addition, the MIC50 in the data set with MRSA [3] amounted to 12.5 µM; in the data set with M. tuberculosis H37Rv [4], 6.25 µM. In the data set with M. tuberculosis H37Rv [4] (rifampicin plus compound), the “Effect against M. tuberculosis in combination with rifampicin” value is recorded as “synergistic or bactericidal effects”. In addition, in the data set on MRSA [5], the “MBC for MRSA” value was 12.5. Besides, in the data set on TB. H37Rv, the “MBC for TB. H37Rv” value worked out at 50. Moreover, the “Effect of sub-inhibitory combination with vancomycin on MRSA growth” value in the data set on MRSA [6] is “substantially inhibited growth of MRSA”. The “Concentration at which killing was observed” value in the data set with MRSA [6] is listed as 12.5 μg mL^–1. The “Killing effect with rifampicin” value in the data set on M. tuberculosis is reported as “comparable killing effects”. The “Toxicity against THP1 and/or HEK 293 cells” value in data set [7] was “some toxicity”.
